{"source": "BindingDB's records for doi:10.1002/cbic.200300724", "about": "(The Scripps Research Institute, 2003)", "molecular_target": "T1, Gag-Pol polyprotein [489-587,G537V,H558K,V571A] (Human immunodeficiency virus, UniProt P12497, G537V/H558K/V571A)", "T1 construct": "489-587", "assay": "Inhibiton Activity Assay", "procedure": "The inhibition activity against HIV-1 PR and three mutants (G48V, V82F, V82A)were done in 96 well microtiter plate and were assayed. Wells that showed 50% inhibition of the enzyme activity were selected and diluted to 10nM and screened again.", "note": "Several values for one entry are separate records, joined by “and”; a condition that tells them apart may be missing. Equal entries are not always repeated."}
{"smiles": "COc1ccc(S(=O)(=O)N(CC(C)C)C[C@@H](O)[C@H](Cc2ccccc2)n2cc(CNC(=O)c3ccc(CNC(=O)OC(C)(C)C)cc3)nn2)cc1", "note": "[HIV-1 PR Inhibitor, compound 8]", "values": [{"measurement": "IC50", "result": "0.013 µM and 0.024 µM and 0.017 µM and 0.052 µM"}, {"measurement": "Ki", "result": "0.004 µM and 0.013 µM and 0.0097 µM and 0.03 µM"}]}
{"smiles": "COc1ccc(S(=O)(=O)N(CC(C)C)C[C@@H](O)[C@H](Cc2ccccc2)n2cc(COC(=O)N[C@H]3c4ccccc4C[C@H]3O)nn2)cc1", "note": "[HIV-1 PR Inhibitor, compound 6]", "values": [{"measurement": "IC50", "result": "0.006 µM and 0.019 µM and 0.039 µM and 0.046 µM"}]}
